Where two headings read alike, the source gives them in different places.
Assays:
[1] = test system: platelet rich plasma (PRP); test: Platelet aggregation in platelet rich plasma after oral administration; assay type: in vivo, male rat; conditions: 30 mg/kg, p.o., blood 90 minutes after administration
Method: Each drug to be tested was orally administered to each male rat which has been subjected to fasting treatment for 18 to 24 hours. After 90 minutes of the administration, median incision ventrotomy was carried out under ether anesthesia to collect 9 volumes of blood using a syringe filled with 1 volume of 3.8% sodium citrate solution (3.8% sodium citrate solution:blood = 1:9). After thorough mixing, the thus prepared mixture was centrifuged at 800 rpm for 10 minutes at room temperature to collect the resulting supernatant fluid as platelet rich plasma (PRP). The residual portion was centrifuged at 3,000 rpm for 15 minutes at room temperature to collect the resulting supernatant fluid as platelet poor plasma (PPP). The PRP was diluted with the PPP to adjust the number of platelets to 3×10⁵ ± 2×10⁴ cells/µl. A 450 µl portion of the thus diluted PRP was incubated at 37°C for 3 minutes and then mixed with 50 µl of 1×10⁻⁵ M of ADP or 1×10⁻⁵ g/ml of collagen. Thereafter, platelet aggregation test of the mixture was carried out using an aggregometer by measuring transmittance at 940 nm.

male mice of ddY line [2] = assay type: in vivo; conditions: 50 mg/kg, i.p., 60 minutes before KCN (3.0 mg/kg) tail intravenous injection; for Survival Time ±S.E.: time to respiratory arrest
[3] = test system: rats of diabetes mellitus; test: Blood sugar level in streptozotocin-induced diabetes mellitus; assay type: in vivo, male rats of Wistar line; conditions: 50 mg/kg
Method: In this experiment, 8-week-old male rats of Wistar line (5 individuals per one group) were used after rearing them for 1 week with normal feed. Streptozotocin (40 mg/kg) was administered by tail intravenous injection to obtain rats of diabetes mellitus. Beginning after 1 week of the streptozotocin administration, oral administration of each test drug has been carried out for 1 week, followed by 24 hours of fasting. Thereafter, blood sample was collected from lower abdominal vena cava under anesthesia with Nembutal® (1 ml/kg, i.p.). Serum samples were prepared from the thus collected blood samples and checked for their blood sugar levels, with the results shown in Table 9.

male mice of ddY line [4] = test: Survival time under hypoxia (aeration with 96% nitrogen and 4% oxygen); assay type: in vivo; conditions: 50 mg/kg, i.p., 60 minutes before aeration with 96% nitrogen and 4% oxygen; time to respiratory arrest
Method: In this experiment, 5 to 6-week-old male mice of ddY line (10 individuals per one group) were used after fasting treatment for 24 hours.
Each compound obtained in the present invention was administered intraperitoneally. After 60 minutes of the administration, each mouse was transferred separately into a transparent vessel (capacity, 1,000 ml) equipped with an air exit, and the vessel was aerated with a mixed gas consisting of 96% nitrogen and 4% oxygen at an aeration rate of 5 ℓ/min.
All tested mice died within 180 seconds after the commencement of the gas mixture aeration. Terminal respiration was observed several times prior to the respiratory arrest. Survival time of the control group was roughly in the range of from 96 to 111 seconds.

male rats of SHR line = test: Blood pressure in SHR rats; assay type: in vivo; conditions: 10 mg/kg, p.o., 2 weeks
Method: In this experiment, 12-week-old male rats of SHR line (5 to 6 individuals per one group) were used after rearing them for 1 week with normal feed. Oral administration of each test drug has been carried out for 2 weeks and then blood pressure (mmHg) was measured using a small animal hemomanometer (UR-1000).

male SD rats = test: Thrombus formation in abdominal vena cava; assay type: in vivo; conditions: 30 mg/kg, p.o.; dry weight of thrombus
Method: Each of male SD rats of 130 to 210 g in body weight was anesthetized with Nembutal® (50 mg/kg, i.p.) and subjected to median incision ventrotomy to release about a 2 cm portion of abdominal vena cava below the renal vein. Blood flow of the thus released vena cava was temporarily stopped for 5 minutes with 8 hemostatic clips. After recirculating blood for 5 minutes by removing the hemostatic clips, […] was ligated at a position just below the renal vein and the median-incised part was sutured. Two hours after the ligature, the thus treated rat was again subjected to ventrotomy to excise abdominal vena cava. The thus excised blood vessel was cut open on a filter paper which had been moistened with physiological saline, in order to take out thrombus. The thrombus thus obtained was washed with physiological saline to remove adhered blood and the like substances and then dried at 80°C for 12 hours or longer to measure its dry weight. In this instance, each drug to be tested was orally administered 90 minutes before the clipping to examine its effect by single administration on the formation of thrombus. Separately from this, each test drug was administered to 6-week-old male SD rat continuously for 7 days, thrombus was prepared in the eighth day in the same manner as described above and dry weight of the thrombus was measured, in order to examine effect of the continuous 7 day administration on the thrombus formation.

red blood cells = test: Inhibition of thermal hemolysis of red blood cells; assay type: cell-based, donryu rats; conditions: 53°C for 20 minutes; for inhibition at 10 µM / inhibition at 50 µM / inhibition at 100 µM / inhibition at 200 µM / inhibition at 500 µM: Rattus norvegicus, Erythrocyte, 20 min, read-out: Hemolysis Inhibition Ratio (%) against Control
Method: Blood was collected from donryu rats of 150 to 200 g in body weight and centrifuged at 1,500 rpm for 5 minutes to obtain red blood cells. The red blood cells thus collected were diluted with 0.15 M phosphate buffer (pH 7.4) to prepare a 5% red blood cell suspension. A 3.8 ml portion of the thus prepared suspension was mixed with 0.2 ml solution of each compound of the present invention which has been adjusted to each level of the concentrations as shown in the following table, and the resulting mixture was shaken thoroughly and incubated at 53°C for 20 minutes. Thereafter, the thus incubated mixture was cooled rapidly with tap water and centrifuged at 3,000 rpm for 15 minutes, and absorbance at 540 nm of the resulting supernatant fluid was measured using a spectrophotometer (Hitachi: Type 200-20). Inhibition rate (%) of red blood cell hemolysis at each concentration of the compound was calculated based on the absorbance, with the results shown in Table 8.

erythrocytes = test: Erythrocyte deformability (filtration through 5 µm filter) after oral administration; assay type: in vivo, male rats of Wistar line; conditions: 30 mg/kg, p.o.; blood collected 90 minutes after administration; number of filtered erythrocytes
Method: In this experiment, 9-week-old male rats of Wistar line (5 to 6 individuals per one group) were used after rearing them for 1 week with normal feed. After 24 hours of fasting, each test drug was administered orally and, 90 minutes thereafter, blood sample was collected from lower abdominal vena cava of each rat under anesthesia with Nembutal® (1 ml/kg, i.p.). Blood samples obtained in this way were checked for their blood clotting time and erythrocyte deformability.
Measuring procedures are as follows.
Erythrocyte deformability ... The collected blood is extruded from a syringe with a constant flow of He in a holder equipped with a filter (5 µm). Weight of blood and the number of erythrocytes filtered during a fixed time are measured and the deformability is expressed based on the number of filtered erythrocytes. The results of these measurements are shown respectively in Tables 11 and 12.

[5] = i.o., administered for 1 week beginning 1 week after streptozotocin (40 mg/kg), serum

Structure (SMILES) | Platelet Aggregation Ratio ±S.E. ([1]; ADP (1×10⁻⁵ M)) [%] | Platelet Aggregation Ratio ±S.E. ([1]; Collagen (1×10⁻⁵ g/ml)) [%] | Lethality (%) (male mice of ddY line [2]) | Survival Time ±S.E. (male mice of ddY line [2]) [s] | Survival Time ±S.E. (male mice of ddY line [4]) [s] | Blood Pressure ±S.E. Average (male rats of SHR line) [mmHg] | Blood Pressure ±S.E. Maximum (male rats of SHR line) [mmHg] | Antithrombotic Effect: Thrombus weight ±S.E. (male SD rats) [mg] | Erythrocyte Deformation: Erythrocyte counts ±S.E. (erythrocytes) [× 10⁷] | Blood Sugar Level ± S.E. [3, 5] [mg/dL] | inhibition at 10 µM (red blood cells; 0.01 mM) [%] | inhibition at 50 µM (red blood cells; 0.05 mM) [%] | inhibition at 100 µM (red blood cells; 0.1 mM) [%] | inhibition at 200 µM (red blood cells; 0.2 mM) [%] | inhibition at 500 µM (red blood cells; 0.5 mM) [%] | further results
CC(CCC1OCC1CO)C1CCC2C3C(O)CC4CC(O)CCC4(C)C3CC(O)C12C [Example 3, (24R)-(25S)-(+)-24,26-epoxy-5β-cholestane-3α,7α,12α,27-tetrol] | 42.5 ± 3.81 | 42.5 ± 1.85 | 80 | 107.3 ± 8.6 | 113.2 ± 5.28 | 150 ± 3.7 | 200 ± 7.7 | 13.5 ± 1.22 | 3.55 ± 0.66 | – | – | – | – | – | – | Blood Sugar Level ± S.E. ([3]; 168 h): 143 ± 6.9 mg/dL; Hemolysis Inhibition Ratio (%) against Control (red blood cells; 0.01 mM): 33%; Hemolysis Inhibition Ratio (%) against Control (red blood cells; 0.05 mM): 30%; Hemolysis Inhibition Ratio (%) against Control (red blood cells; 0.1 mM): 24%; Hemolysis Inhibition Ratio (%) against Control (red blood cells; 0.2 mM): 51%; Hemolysis Inhibition Ratio (%) against Control (red blood cells; 0.5 mM): 70%
C[C@H](CC[C@H]1OC[C@H]1CO)[C@H]1CC[C@H]2[C@@H]3[C@H](O)C[C@@H]4C[C@H](O)CC[C@]4(C)[C@H]3C[C@H](O)[C@]12C [Example 4, (24R)-(25R)-(+)-24,26-epoxy-5β-cholestane-3α,7α,12α,27-tetrol] | 46.1 ± 2.65 | 47.7 ± 3.88 | 80 | 98.1 ± 13.1 | 115.5 ± 3.88 | 153 ± 2.8 | 205 ± 7.8 | 11.2 ± 3.81 | 3.97 ± 0.39 | 181 ± 8.9 | 27 | 21 | 31 | 44 | 48 | –
C[C@H](CC[C@@H](O)C1COC1)[C@H]1CC[C@H]2[C@@H]3[C@H](O)C[C@@H]4C[C@H](O)CC[C@]4(C)[C@H]3C[C@H](O)[C@]12C [Example 5, (24R)-(+)-26,27-epoxy-5β-cholestane-3α,7α,12α,24-tetrol] | 48.5 ± 3.31 | 48.1 ± 2.65 | 80 | 99.5 ± 7.21 | 110.0 ± 5.10 | 148 ± 3.5 | 181 ± 3.5 | 11.2 ± 3.12 | 4.10 ± 0.55 | 122 ± 7.8 | 23 | 19 | 30 | 41 | 61 | –

Source: patent EP0489933A1, “BILE ALCOHOL AND DRUG CONTAINING THE SAME AS ACTIVE INGREDIENT” (TSUMURA CO., LTD., priority 1990, dated 1992)
